Assay type in all cases: biochemical
One assay addresses T1, Human PI3K beta (Homo sapiens, UniProt P42338).
T1 construct: His (N); host or cells: SF9 insect cells (baculovirus)
As to the kind of experiment: Human PI3K beta enzyme assay (HTRF). The conditions noted are these: concentration not given, b1387 states 1.1 μM for PI3K α and β; for inhibition at 1.1 µM: read-out: p110 beta Percent Inhibition. The method, boiled down: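 Compounds were mixed with 25 uM ATP, then with 3.5 uM di-C8 PI(4,5)P2 and His-tagged PI3K isoform (β 5.25 nM, δ 0.75 nM, γ 5 nM) at pH 7.00. After 30 min at room temperature, EDTA stopped the reaction and PIP3 was measured by HTRF over 1 h.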

In the next assay the target is T2, Human PI3K delta (Homo sapiens, UniProt O00329).
T2 construct: His (N); host or cells: SF9 insect cells (baculovirus)
T2 sequence (O00329 whole entry): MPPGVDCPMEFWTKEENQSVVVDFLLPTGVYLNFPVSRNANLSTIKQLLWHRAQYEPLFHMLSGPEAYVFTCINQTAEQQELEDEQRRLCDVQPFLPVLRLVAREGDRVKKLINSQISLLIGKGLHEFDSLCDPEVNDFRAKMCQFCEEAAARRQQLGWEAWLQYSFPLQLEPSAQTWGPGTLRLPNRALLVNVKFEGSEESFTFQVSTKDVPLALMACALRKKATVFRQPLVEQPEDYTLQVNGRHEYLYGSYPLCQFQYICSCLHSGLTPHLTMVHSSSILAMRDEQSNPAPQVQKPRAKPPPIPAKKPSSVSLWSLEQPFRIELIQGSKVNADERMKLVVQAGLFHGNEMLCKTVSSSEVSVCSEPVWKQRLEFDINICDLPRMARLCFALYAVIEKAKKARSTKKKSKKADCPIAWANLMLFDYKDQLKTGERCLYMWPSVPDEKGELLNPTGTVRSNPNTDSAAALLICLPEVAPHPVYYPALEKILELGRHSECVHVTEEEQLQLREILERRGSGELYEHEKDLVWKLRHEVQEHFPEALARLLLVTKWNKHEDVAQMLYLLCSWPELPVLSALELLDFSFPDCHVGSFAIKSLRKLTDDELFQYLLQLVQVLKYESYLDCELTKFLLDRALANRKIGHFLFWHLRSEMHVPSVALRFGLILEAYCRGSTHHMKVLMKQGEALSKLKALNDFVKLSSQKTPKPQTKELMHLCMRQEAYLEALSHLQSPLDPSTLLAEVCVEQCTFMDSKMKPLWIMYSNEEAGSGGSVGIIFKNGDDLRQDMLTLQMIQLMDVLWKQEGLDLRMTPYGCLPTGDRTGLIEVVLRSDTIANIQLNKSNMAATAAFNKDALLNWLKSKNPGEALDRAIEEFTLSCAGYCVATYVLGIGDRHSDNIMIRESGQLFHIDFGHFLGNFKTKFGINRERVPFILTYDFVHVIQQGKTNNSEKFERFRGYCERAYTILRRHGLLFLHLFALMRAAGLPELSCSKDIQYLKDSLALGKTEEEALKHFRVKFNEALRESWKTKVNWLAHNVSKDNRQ
T2 sequence (P27986 whole entry partner): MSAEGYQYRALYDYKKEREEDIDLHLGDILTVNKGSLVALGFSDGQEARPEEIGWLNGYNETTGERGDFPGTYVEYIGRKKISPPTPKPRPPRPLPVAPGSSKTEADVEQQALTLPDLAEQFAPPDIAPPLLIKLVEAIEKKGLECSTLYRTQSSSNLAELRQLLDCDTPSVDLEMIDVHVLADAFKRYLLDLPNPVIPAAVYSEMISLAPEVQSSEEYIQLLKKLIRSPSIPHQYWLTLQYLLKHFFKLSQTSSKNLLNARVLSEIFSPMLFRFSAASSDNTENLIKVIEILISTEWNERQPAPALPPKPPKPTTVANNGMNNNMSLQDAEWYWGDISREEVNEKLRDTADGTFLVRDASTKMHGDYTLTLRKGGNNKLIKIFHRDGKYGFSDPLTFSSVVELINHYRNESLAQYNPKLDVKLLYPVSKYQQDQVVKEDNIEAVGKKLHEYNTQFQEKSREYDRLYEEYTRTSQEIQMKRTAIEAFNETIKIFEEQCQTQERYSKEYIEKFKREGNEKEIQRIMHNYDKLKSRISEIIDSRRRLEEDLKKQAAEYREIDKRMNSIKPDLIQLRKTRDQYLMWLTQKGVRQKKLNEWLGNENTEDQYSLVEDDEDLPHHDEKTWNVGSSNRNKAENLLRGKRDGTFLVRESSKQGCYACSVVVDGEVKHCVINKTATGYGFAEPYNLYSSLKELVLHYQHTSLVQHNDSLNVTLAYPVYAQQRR
Kind of assay: Human PI3K delta enzyme assay (HTRF). The conditions noted are these: concentration not given, b1389 states 1.0 μM for PI3K δ and γ; for inhibition at 1 µM: read-out: p110 delta Percent Inhibition. The text has this:
(§1) The catalytic subunits of PI3Ks are cloned into either pDEST8(p110 alpha) or pDEST10(p110beta, p110delta, and p110gamma) as N-terminal His tagged fusion proteins using the Gateway system (Invitrogen, catalog#11804-010 for pDEST8 and 11806-015 for pDEST10). The sequences are verified before recombinant protein expression using the Baculovirus Expression System with Gateway® Technology. The accession numbers for the subunits are as follows: • p110 alpha (GB:U79143) • p110beta (GB: S67334) • p110delta (GB: U86453) • p110gamma (GB: X83368) • The regulatory subunits of PI3Ks are cloned into pDEST8 as un-tagged protein using the Gateway system (Catalog#11804-010). The sequences are verified before recombinant protein expression using the Baculovirus Expression System with Gateway® Technology. The accession numbers for the subunits are as following: • p85 alpha (GB: BC030815) • p101(GB: AB028925) • VPS34 (accession number GB:BC033004) is cloned into pDEST20—Thombin as N-terminal GST tagged fusion proteins using the Gateway system (Invitrogen, catalog#11804-013). The sequences are verified before recombinant protein expression using the Baculovirus Expression System with Gateway® Technology.
(§2) For expression of the p110 complexes, the p85 (MOI of 4) is co-infected with p110 alpha, beta, and delta respectively (1MOI) in SF9 cells and harvested at 60 hours post co-infection. P110 gamma was infected at 1 MOI and harvested at 60 hours post infection.
(§3) For purification, PI3Ks are purified by Ni-NTA Agarose (Qiagen #30250) followed by Mono Q 10/100 GL (Ge Healthcare #17-5167-01). VPS34 is purified by Glutathione Sepharose 4 Fast Flow (GE Healthcare #17-5132-03) followed by HiTrap Q (GE Healthcare #17-1153-01).
(§4) 0.5 uL compounds in DMSO are added to wells of a 384 well microtitre plate (Corning 3575). At room temperature: 10 ul PI3K reaction buffer (50 mM Hepes, 5 mM DTT, 150 mM NaCl, 10 mM beta-glycerophosphate, 10 mM MgCl2, 0.25 mM sodium cholate and 0.001% CHAPS, pH 7.00) containing ATP (25 uM, Promega) is added followed immediately by 10 ul PI3K reaction buffer containing di-C8 P1(4,5)P2 (3.5 uM, CellSignals) and PI3Kalpha (0.4875 nM, Millennium Protein Sciences Group) and the mixture is incubated with shaking at room temperature for 30 minutes. Then 5 ul PI3K stop mix (50 mM Hepes, 5 mM DTT, 150 mM NaCl, 0.01% Tween-20, 15 mM EDTA and 25 nM biotin-PI(3,4,5)P3 (Echelon) is added to quench the reaction followed immediately by addition of 5 ul HTRF detection mix (50 mM Hepes, 5 mM DTT, 150 mM NaCl, 0.01% Tween-20, 40 mM KF, 1.0 nM GST:GRP-1 PH domain (Millennium Protein Sciences Group), 15 nM Streptavidin-XL (CisBio) and 0.375 nM anti-GST Eu++ antibody (CisBio) at pH 7.00). The plates are then incubated for 1 hour at room temperature with shaking and then read on a BMG PheraStar Plus reader.
(§5) 2) Human PI3K beta, delta and gamma isoforms are tested using the procedure described for PI3K alpha above but with the following changes: PI3K beta (5.25 nM), PI3K delta (0.75 nM) and PI3K gamma (5 nM). All isoforms supplied by Millennium Protein Science Group.
(§6) For the assay methods described above, test compound percent inhibition, at various concentrations, is calculated relative to control (DMSO and EDTA) treated samples. Compound concentration versus percent inhibition curves are fitted to generate IC50 values. One skilled in the art will appreciate that the values generated either as percentage inhibition at a single concentration or IC50 values are subject to experimental variation.

A further assay addresses T3, Human PI3K gamma (Homo sapiens, UniProt P48736).
T3 construct: His (N); host or cells: SF9 insect cells (baculovirus)
Kind of assay: Human PI3K gamma enzyme assay (HTRF). The conditions noted are these: concentration not given, b1389 states 1.0 μM for PI3K δ and γ; for inhibition at 1 µM: read-out: p110 gamma Percent Inhibition.
Source text: as §1, §2, §3, §4, §5, §6
A general note: In TR-FRET formats the signal depends on donor and acceptor labels being close together.

Another assay deals with T4, Human PI3K alpha (Homo sapiens, UniProt P42336).
T4 construct: His (N); host or cells: SF9 insect cells (baculovirus)
T4 sequence (P42336 whole entry): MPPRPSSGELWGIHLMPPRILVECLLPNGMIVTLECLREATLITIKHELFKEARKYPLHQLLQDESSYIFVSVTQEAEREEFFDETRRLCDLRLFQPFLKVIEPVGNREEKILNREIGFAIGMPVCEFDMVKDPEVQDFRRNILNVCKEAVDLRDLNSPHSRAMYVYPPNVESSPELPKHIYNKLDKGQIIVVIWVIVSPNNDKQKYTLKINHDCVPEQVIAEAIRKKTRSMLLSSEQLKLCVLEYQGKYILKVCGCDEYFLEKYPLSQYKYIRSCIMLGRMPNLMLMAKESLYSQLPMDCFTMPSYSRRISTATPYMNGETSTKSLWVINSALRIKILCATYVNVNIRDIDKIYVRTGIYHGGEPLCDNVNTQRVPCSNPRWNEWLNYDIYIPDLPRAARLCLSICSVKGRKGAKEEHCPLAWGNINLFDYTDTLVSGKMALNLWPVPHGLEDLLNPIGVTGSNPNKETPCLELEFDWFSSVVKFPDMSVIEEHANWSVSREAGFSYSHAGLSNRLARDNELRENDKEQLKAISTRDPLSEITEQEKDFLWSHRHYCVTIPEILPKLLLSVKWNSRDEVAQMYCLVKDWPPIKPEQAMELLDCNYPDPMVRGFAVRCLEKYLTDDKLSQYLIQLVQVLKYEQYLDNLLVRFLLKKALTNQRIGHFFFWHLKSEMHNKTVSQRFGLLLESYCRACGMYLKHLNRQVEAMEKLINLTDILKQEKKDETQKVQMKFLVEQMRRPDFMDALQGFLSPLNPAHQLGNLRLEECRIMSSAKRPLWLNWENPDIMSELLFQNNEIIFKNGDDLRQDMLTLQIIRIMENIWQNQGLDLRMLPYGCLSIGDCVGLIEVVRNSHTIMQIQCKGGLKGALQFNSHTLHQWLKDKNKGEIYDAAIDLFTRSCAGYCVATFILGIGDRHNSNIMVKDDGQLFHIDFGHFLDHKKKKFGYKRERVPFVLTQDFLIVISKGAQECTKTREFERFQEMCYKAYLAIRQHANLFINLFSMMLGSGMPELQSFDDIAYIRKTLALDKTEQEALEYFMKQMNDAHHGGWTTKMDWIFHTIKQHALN
T4 sequence (P27986 whole entry partner): as the sequence (P27986 whole entry partner) above
As to the kind of experiment: Human PI3K alpha enzyme assay (HTRF). The conditions noted are these: concentration not given, b1387 states 1.1 μM for PI3K α and β; for inhibition at 1.1 µM: read-out: p110 alpha Percent Inhibition.

Structures are written as SMILES.

T1 sequence (P42338 whole entry): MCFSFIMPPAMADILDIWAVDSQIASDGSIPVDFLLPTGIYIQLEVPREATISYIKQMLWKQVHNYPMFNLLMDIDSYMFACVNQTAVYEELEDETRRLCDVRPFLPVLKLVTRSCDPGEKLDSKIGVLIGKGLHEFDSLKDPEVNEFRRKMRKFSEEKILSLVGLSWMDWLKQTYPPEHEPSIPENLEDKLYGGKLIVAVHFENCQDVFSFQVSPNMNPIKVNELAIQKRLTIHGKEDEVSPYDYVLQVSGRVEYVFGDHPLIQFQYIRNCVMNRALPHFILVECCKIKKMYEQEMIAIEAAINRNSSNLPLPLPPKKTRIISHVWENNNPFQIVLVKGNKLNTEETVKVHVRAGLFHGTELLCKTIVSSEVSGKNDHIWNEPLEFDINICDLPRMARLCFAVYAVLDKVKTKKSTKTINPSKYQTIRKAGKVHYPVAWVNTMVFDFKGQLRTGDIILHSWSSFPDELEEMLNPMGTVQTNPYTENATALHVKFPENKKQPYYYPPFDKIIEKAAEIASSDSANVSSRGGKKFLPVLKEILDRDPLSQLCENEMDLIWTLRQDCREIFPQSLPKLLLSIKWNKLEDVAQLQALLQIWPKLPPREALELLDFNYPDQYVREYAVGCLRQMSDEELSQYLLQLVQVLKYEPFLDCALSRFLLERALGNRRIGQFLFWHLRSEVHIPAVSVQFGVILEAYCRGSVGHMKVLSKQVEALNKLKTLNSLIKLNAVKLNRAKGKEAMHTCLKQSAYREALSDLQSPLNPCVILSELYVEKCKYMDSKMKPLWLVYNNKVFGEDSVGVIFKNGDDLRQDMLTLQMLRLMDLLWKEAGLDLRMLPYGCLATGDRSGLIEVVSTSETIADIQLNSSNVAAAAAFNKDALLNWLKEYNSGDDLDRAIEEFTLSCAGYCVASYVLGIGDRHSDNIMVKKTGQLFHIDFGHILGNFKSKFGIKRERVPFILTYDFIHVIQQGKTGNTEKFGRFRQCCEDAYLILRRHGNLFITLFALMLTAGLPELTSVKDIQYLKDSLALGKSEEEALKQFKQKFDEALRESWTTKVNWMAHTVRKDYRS
T1 sequence (P27986 whole entry partner): as the sequence (P27986 whole entry partner) above
T3 sequence (P48736 whole entry): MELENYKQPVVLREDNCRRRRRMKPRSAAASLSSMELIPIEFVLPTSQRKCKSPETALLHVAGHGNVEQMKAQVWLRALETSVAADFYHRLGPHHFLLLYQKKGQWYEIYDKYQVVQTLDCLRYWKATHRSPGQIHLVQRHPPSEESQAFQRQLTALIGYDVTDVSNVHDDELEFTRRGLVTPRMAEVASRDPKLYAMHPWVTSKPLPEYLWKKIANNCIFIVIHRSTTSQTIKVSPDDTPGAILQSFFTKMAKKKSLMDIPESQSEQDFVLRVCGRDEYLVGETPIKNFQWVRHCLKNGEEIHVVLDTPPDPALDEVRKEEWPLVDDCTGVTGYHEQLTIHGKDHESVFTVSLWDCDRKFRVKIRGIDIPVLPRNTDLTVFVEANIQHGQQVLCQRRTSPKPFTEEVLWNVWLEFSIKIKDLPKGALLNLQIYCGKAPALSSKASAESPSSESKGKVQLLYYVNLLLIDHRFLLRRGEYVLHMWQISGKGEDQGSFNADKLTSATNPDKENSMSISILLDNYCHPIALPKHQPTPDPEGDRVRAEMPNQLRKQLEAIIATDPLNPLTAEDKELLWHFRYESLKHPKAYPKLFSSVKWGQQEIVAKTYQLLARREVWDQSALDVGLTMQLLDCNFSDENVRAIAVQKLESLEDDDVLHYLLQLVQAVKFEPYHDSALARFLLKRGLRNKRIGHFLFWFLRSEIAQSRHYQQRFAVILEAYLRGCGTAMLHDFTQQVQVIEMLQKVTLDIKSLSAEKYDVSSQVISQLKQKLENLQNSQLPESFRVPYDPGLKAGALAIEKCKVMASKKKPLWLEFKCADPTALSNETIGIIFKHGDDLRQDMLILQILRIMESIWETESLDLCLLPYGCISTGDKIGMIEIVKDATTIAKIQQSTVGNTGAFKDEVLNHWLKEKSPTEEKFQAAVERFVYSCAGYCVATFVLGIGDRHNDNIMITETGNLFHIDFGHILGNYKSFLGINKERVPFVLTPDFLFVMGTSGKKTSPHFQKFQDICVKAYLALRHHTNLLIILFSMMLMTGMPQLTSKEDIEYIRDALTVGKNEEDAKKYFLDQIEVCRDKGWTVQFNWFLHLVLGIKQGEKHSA

Regarding `CC(c1ccc(Cl)c(Cl)c1)c1nc(N2CCOCC2)sc1C(=O)O` (stereo not drawn) [Compound 332], the figures for the inhibition at 1.1 µM on Human PI3K beta and on Human PI3K alpha were 77% and 11%, respectively. Further, the inhibition at 1 µM on Human PI3K delta was 91%; at Human PI3K gamma, 27%.
On the same counts, the results for `OC(c1cc(F)ccc1F)c1cc(-c2ccncc2)sc1-c1nnc[nH]1` (stereo not drawn) [Compound 266] are 90%, 36%, 52% and 8%.
For `CC(=O)Nc1cc(-c2cc(C(OCC3CNC3)c3ccc(Cl)cc3)c(-c3nnc[nH]3)s2)ccn1` (stereo not drawn) [Compound 182], the inhibition at 1.1 µM on Human PI3K beta stood at 100%; on Human PI3K alpha it was 83%. Also, the inhibition at 1 µM at Human PI3K delta came out at 107%; on Human PI3K gamma, 45%.
Taken in the same sequence, the figures for `N#Cc1c(-c2ccnnc2)sc(-c2nnc[nH]2)c1C(c1ccc2ccccc2c1)N1CCNCC1` (stereo not drawn) [Compound 172] were 101%, 28%, 60% and 6%.
As to `N#Cc1c(N2CCOCC2)sc(C(=O)O)c1C(CCF)c1ccc2ccccc2c1` (stereo not drawn) [Compound 322], the inhibition at 1.1 µM on Human PI3K beta came to 104%. For the same molecule, the “p110 delta Percent Inhibition” value at Human PI3K delta is given as 67%. The “p110 gamma Percent Inhibition” value at Human PI3K gamma was found to be 28%. For the same molecule, on Human PI3K alpha, the “p110 alpha Percent Inhibition” value is listed as 64%.
For the molecule `N#Cc1c(N2CCOCC2)sc(C(=O)O)c1C(CCO)c1ccc2ccccc2c1` (stereo not drawn) [Compound 363], the “p110 beta Percent Inhibition” value on Human PI3K beta is recorded as 113%. In addition, the “p110 delta Percent Inhibition” value on Human PI3K delta is listed as 106%. Besides, on Human PI3K gamma, the “p110 gamma Percent Inhibition” value came to 65%. Further, the “p110 alpha Percent Inhibition” value on Human PI3K alpha is given as 99%.
Take `Cc1cc(-c2cc(C(c3ccc(Cl)cc3)N(C)C)c(-c3nnc[nH]3)s2)ccn1` (stereo not drawn) [Compound 161]: the inhibition at 1.1 µM came out at 60% on Human PI3K beta and 14% at Human PI3K alpha. In addition, the inhibition at 1 µM worked out at 40% on Human PI3K delta and 7% on Human PI3K gamma.
For the molecule `COc1cc(C(O)c2cc(-c3ccnc(C)c3)sc2-c2nnc[nH]2)c(F)cc1Cl` (stereo not drawn) [Compound 285], the “p110 beta Percent Inhibition” value at Human PI3K beta was 83%. Further, the “p110 delta Percent Inhibition” value at Human PI3K delta worked out at 77%. Besides, the “p110 gamma Percent Inhibition” value at Human PI3K gamma is on record as 18%. Besides, the “p110 alpha Percent Inhibition” value on Human PI3K alpha is 16%.
As for `OC(c1ccccc1F)c1cc(-c2ccncc2)sc1-c1nnc[nH]1` (stereo not drawn) [Compound 155], the results for the inhibition at 1.1 µM on Human PI3K beta and on Human PI3K alpha were 64% and 29%, respectively. In addition, the inhibition at 1 µM at Human PI3K delta was 53%; on Human PI3K gamma it was 28%.
Taken in the same sequence, the figures for `CC(=O)Nc1cc(-c2cc(C(c3ccc(Cl)cc3)N3CCN(S(C)(=O)=O)CC3)c(-c3nnc[nH]3)s2)ccn1` (stereo not drawn) [Compound 224] were 92%, 70%, 103% and 15%.
On the same counts, the results for `CC(=O)Nc1cc(-c2cc(C(O)(CCCN(C)C)c3ccc(Cl)cc3)c(-c3nnc[nH]3)s2)ccn1` (stereo not drawn) [Compound 145] are 98%, 64%, 97% and 9%.
Take `Cc1c(F)cccc1C(O)c1cc(-c2ccncc2)sc1-c1nnc[nH]1` (stereo not drawn) [Compound 138]: the inhibition at 1.1 µM came out at 86% on Human PI3K beta and 43% on Human PI3K alpha. Further, the values for the inhibition at 1 µM at Human PI3K delta and on Human PI3K gamma were 69% and 13%, respectively.
For `c1ccc2cc(Cc3nc(N4CCOCC4)sc3-c3nnn[nH]3)ccc2c1` [Compound 360, 4-[4-(2-naphthylmethyl)-5-(1H-tetrazol-5-yl)-1,3-thiazol-2-yl]morpholine], the “p110 beta Percent Inhibition” value on Human PI3K beta was 106%. In addition, the “p110 delta Percent Inhibition” value on Human PI3K delta was determined as 110%. The “p110 gamma Percent Inhibition” value at Human PI3K gamma stood at 49%. For the same molecule, the “p110 alpha Percent Inhibition” value on Human PI3K alpha came out at 30%.
For the molecule `O=C(O)c1sc(N2CCOCC2)nc1Cc1ccc2ccc(F)cc2c1` [Compound 310], the results for the inhibition at 1.1 µM at Human PI3K beta and on Human PI3K alpha were 106% and 34%, respectively. Besides, the inhibition at 1 µM came out at 105% on Human PI3K delta and 64% on Human PI3K gamma.
Taken in the same sequence, the figures for `O=C(O)c1sc(-c2ccncc2)cc1Cc1ccc2ccccc2c1` [Compound 210, 3-(2-naphthylmethyl)-5-pyridin-4-ylthiophene-2-carboxylic acid] were 110%, 52%, 92% and 68%.
Taken in the same sequence, the figures for `OC(c1ccc2ccccc2c1)c1cc(-c2ccncc2)sc1-c1nnc[nH]1` (stereo not drawn) [Compound 280] were 106%, 35%, 92% and 34%.
On the same counts, the results for `NC(=O)c1ccc2ccc(Cc3nc(N4CCOCC4)sc3C(=O)O)cc2c1` [Compound 318] are 96%, 18%, 76% and 14%.
Regarding `OC(c1ccc(Cl)cc1)c1cc(-c2ccnc(Nc3ncco3)c2)sc1-c1nnc[nH]1` (stereo not drawn) [Compound 147], the inhibition at 1.1 µM at Human PI3K beta came out at 96%; on Human PI3K alpha it was 83%. Moreover, the inhibition at 1 µM at Human PI3K delta was 107%; on Human PI3K gamma, 18%.
As to `N#Cc1c(N2CCOCC2)sc(C(=O)O)c1Cc1ccc2ccc(F)cc2c1` [Compound 287], at Human PI3K delta, the inhibition at 1 µM was 112%.
Consider `N#Cc1c(N2CCOCC2)sc(C(=O)O)c1Cc1cc2ccccc2cc1F` [Compound 295], for which the inhibition at 1 µM on Human PI3K delta is 112%.
Take `N#Cc1c(N2CCOCC2)sc(C(=O)O)c1C(F)c1ccc2ccccc2c1` (stereo not drawn) [Compound 345]: the inhibition at 1 µM on Human PI3K delta came out at 83%. Also, on Human PI3K alpha, the “p110 alpha Percent Inhibition” value is 64%.
For the molecule `N#Cc1c(N2CCOCC2)sc(C(=O)O)c1Cc1cc(F)c2ccccc2c1` [Compound 324], the inhibition at 1 µM at Human PI3K delta worked out at 113%.
On the same count and under the same terms, for `N#Cc1c(N2CCOCC2)sc(C(=O)O)c1Cc1ccc2ccccc2c1F` [Compound 293] the value was 110%.
As to `COC(c1ccc2ccccc2c1)c1c(C(=O)O)sc(N2CCOCC2)c1C#N` (stereo not drawn) [Compound 337], the “p110 delta Percent Inhibition” value at Human PI3K delta turned out to be 46%.
Take `N#Cc1c(N2CCOCC2)sc(C(=O)O)c1Cc1cc(F)c(Cl)cc1F` [Compound 300]: the inhibition at 1 µM at Human PI3K delta turned out to be 97%.
Same read-out and setting: the figure for `N#Cc1c(N2CCOCC2)sc(C(=O)O)c1Cc1ccc2c(c1)CCCC2` [Compound 305] is 74%.
